In patent US20090170886A1 (Pfizer Inc, priority 2005, published 2009):
Where a chain is given by its changes, count along the chain named. Like-named read-outs stand apart in the source and are kept apart here.

Tests used:
[1] = target: T1, hAR (human androgen receptor, baculovirus/Sf9 generated extracts) (Homo sapiens, UniProt P10275); assay: AR Binding Assay (competitive binding with 3H-DHT tracer); settings: 1 nM 3H-DHT, one hour at 4° C., mean of multiple tests
T1 construct: made in house; host or cells: baculovirus/Sf9 insect cells (crude extract)
T1 sequence (P10275 1-920): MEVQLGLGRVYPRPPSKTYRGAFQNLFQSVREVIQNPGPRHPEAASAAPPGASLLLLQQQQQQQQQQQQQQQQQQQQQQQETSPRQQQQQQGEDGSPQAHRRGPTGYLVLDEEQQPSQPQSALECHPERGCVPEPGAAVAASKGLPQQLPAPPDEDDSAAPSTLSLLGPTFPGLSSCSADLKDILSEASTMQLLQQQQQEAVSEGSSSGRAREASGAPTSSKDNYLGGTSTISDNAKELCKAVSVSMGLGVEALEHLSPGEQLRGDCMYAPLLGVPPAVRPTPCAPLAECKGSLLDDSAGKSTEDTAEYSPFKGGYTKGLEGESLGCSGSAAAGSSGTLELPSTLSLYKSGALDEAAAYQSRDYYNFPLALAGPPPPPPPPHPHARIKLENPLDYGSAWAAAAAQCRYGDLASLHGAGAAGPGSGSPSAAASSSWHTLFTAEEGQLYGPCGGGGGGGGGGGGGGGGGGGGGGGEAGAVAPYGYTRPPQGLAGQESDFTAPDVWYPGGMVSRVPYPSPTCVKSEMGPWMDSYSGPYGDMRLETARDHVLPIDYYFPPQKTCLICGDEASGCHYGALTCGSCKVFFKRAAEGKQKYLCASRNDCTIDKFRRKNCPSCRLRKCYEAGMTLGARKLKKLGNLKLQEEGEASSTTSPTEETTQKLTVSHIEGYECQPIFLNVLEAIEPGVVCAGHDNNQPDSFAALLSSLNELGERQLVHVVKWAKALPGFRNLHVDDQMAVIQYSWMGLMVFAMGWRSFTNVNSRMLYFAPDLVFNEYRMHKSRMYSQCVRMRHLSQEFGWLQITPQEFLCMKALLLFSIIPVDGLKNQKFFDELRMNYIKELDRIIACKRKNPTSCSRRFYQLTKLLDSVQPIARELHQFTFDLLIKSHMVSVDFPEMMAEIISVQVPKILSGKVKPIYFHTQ
How it was run: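 Compounds at decreasing concentrations were incubated with baculovirus/Sf9 hAR extract, hydroxylapatite and 1 nM ^3H-DHT for one hour at 4° C., then washed three times. The value is the compound concentration inhibiting half of maximum ^3H-DHT binding, reported as the mean of multiple tests.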

spinal BMD = settings: after 7 years of treatment; cited from earlier work
[2] = target: T2, androgen receptor in MDA-MB453-MMTV clone 54-19 cells (Homo sapiens, UniProt P10275); assay: AR Antagonist Cell Assay (MMTV-luciferase reporter, DHT-induced); assay type: cell-based; settings: MDA-MB453-MMTV clone 54-19, 100 pM DHT, 17 hr; mean of multiple tests
T2 sequence (P10275 1-920 Q868H): T1 sequence (P10275 1-920) with Q868H
Description: The compounds ability to antagonize the effects of androgen on the androgen receptor were determined in a whole cell assay as described immediately below.
Cell line: MDA-MB453-MMTV clone 54-19. This cell line is a stable transfected cell line with MDA-MB453 cell background (a human breast tumor cell line expressing androgen receptor). A MMTV minimal promoter containing ARE was first cloned in front of a firefly luciferase reporter gene. Then the cascade was cloned into transfection vector pUV120puro. Electroporation method was used for transfecting MDA-MB-453 cell. Puromycin resistant stable cell line was selected.
Culture medium: DMEM (high glucose, Gibco cat #: 11960-044), 10% FBS, and 1% L-glutamine
Plating medium: DMEM (phenol red free), 10% charcoal treated HyClone serum, 1% L-glutamine
Assay medium: DMEM (phenol red free), 1% charcoal treated HyClone serum, 1% L-glutamine, and 1% penicillin/streptomycin
3× luciferase buffer: 2% beta-mercaptoethanol, 0.6% ATP, 0.0135% luciferine in cell lysis buffer
Cells are maintained in culture medium, splitting cells when they reach 80-90% confluence. To test compounds, 10,000 cells/well are plated to opaque 96 cell culture plate in 100 ul/well plating medium, culture for overnight at 37° C. in cell culture incubator. Carefully remove plating medium, then add 80 ul/well of pre-warmed assay medium, add 10 ul/well testing compound (final concentration at) 1000 nM, 200 nM, 40 nM, 8 nM, 1.6 nM, and 0.32 nM), incubate at 37° C. for 30 minutes. Add 10 ul/well freshly prepared DHT (final concentration at 100 pM) to each well, incubate at 37° C. for 17 hr (overnight). Add 50 ul/well 3× luciferase buffer, incubate at room temperature for 5 minutes, then count on Luminometer. The fold induction over background by 100 pM DHT in the absence of testing compounds is standardized as 100% and experimental result is expressed as percentage of inhibition by testing compounds.
The results are reported as the mean of multiple tests as described below (the numbers of tests are indicated in the footnote). ND denotes that the compound was not tested.

[3] = hAR extract, read-out: AR Binding IC50

melting point	Compound	IC50 [1, 3]	increase in spinal BMD (spinal BMD)	IC50 [2]	IC50 ([1]; AR Binding IC50, hAR extract)
73 to 75 °C	Cc1cccc(COc2ccc(C#N)cc2Cl)c1 [Example 40, 3-Chloro-4-(3-methyl-benzyloxy)-benzonitrile]	783 nM			
	NCCCC(O)(P(=O)(O)O)P(=O)(O)O [alendronate]		≤ 11%		
	CC(Oc1ccc(C#N)c(C(F)(F)F)c1)c1ccccc1 (centres unmarked) [Example 53, 4-(1-Phenyl-ethoxy)-2-trifluoromethyl-benzonitrile]			55 nM	8 nM
	C#CC(Oc1ccc(C#N)c(C(F)(F)F)c1)c1ccccc1 (centres unmarked) [Example 56, 4-(1-Phenyl-prop-2-ynyloxy)-2-trifluoromethyl-benzonitrile]			20 nM	74 nM
	CC(C)(Oc1ccc(C#N)cc1Cl)c1ccccc1 [Example 37, 3-Chloro-4-(1-methyl-1-phenyl-ethoxy)-benzonitrile]	184 nM		> 1000 nM	
	Cc1cccc(C(C)Oc2ccc(C#N)c(C(F)(F)F)c2)c1 (centres unmarked) [Example 28, 4-(1-m-Tolyl-ethoxy)-2-trifluoromethyl-benzonitrile]			573 nM	50 nM
	Cc1ccc(C)c(C(C)Oc2ccc(C#N)c(Cl)c2)c1 (centres unmarked) [Example 61, 2-Chloro-4-[1-(2,5-dimethyl-phenyl)-ethoxy]-benzonitrile]			> 1000 nM	61 nM
	N#Cc1ccc(OCc2cccc(O)c2)cc1Cl [Example 66, 2-Chloro-4-(3-hydroxy-benzyloxy)-benzonitrile]			4 nM	11 nM
	COC(=O)c1ccc(C(C)Oc2ccc(C#N)c(C(F)(F)F)c2)cc1 (racemic) [Example 29, (±)-4-[1-(4-Cyano-3-trifluoromethyl-phenoxy)-ethyl]-benzoic Acid Methyl Ester]	102 nM		132 nM	
	CCCCCCC(Oc1ccc(C#N)c(C(F)(F)F)c1)c1ccccc1 (centres unmarked) [Example 46, 4-(1-Phenyl-heptyloxy)-2-trifluoromethyl-benzonitrile]	204 nM		> 1000 nM	
	CCOc1ccccc1COc1ccc(C#N)c(C(F)(F)F)c1 [Example 55, 4-(2-Ethoxy-benzyloxy)-2-trifluoromethyl-benzonitrile]	125 nM		> 1000 nM	
	Cc1cccc(C(C)Oc2ccc(C#N)c(C(F)(F)F)c2)c1 (centres unmarked) [Example 51, 4-(1-m-Tolyl-ethoxy)-2-trifluoromethyl-benzonitrile]			> 1000 nM	108 nM
	C[C@@H](Oc1ccc(C#N)c(C(F)(F)F)c1)c1ccccn1 [Example 36, (R)-(+)-4-(1-Pyridin-2-yl-ethoxy)-2-trifluoromethyl-benzonitrile]			28 nM	54 nM
	CCC(Oc1ccc(C#N)c(C(F)(F)F)c1)c1ccccc1 (centres unmarked) [Example 48, 4-(1-Phenyl-propoxy)-2-trifluoromethyl-benzonitrile]			345 nM	38 nM
	N#Cc1ccc(OC(Cc2ccccc2)c2ccccn2)cc1C(F)(F)F (centres unmarked) [Example 82, 4-(2-Phenyl-1-pyridin-2-yl-ethoxy)-2-trifluoromethyl-benzonitrile]	238 nM		> 1000 nM	
	CC(C)CC(Oc1ccc(C#N)c(C(F)(F)F)c1)c1ccccn1 (centres unmarked) [Example 83, 4-(3-Methyl-1-pyridin-2-yl-butoxy)-2-trifluoromethyl-benzonitrile]	119 nM		> 1000 nM	
	CCC(Oc1ccc(C#N)c(C(F)(F)F)c1)c1cccnc1 (centres unmarked) [Example 90, 4-(1-Pyridin-3-yl-propoxy)-2-trifluoromethyl-benzonitrile]	167 nM		142 nM	
	C[C@@H](Oc1ccc(C#N)c(C(F)(F)F)c1)c1ccccc1 [Example 3, (R)-4-(1-Phenyl-ethoxy)-2-trifluoromethyl-benzonitrile]			61 nM	3 nM
	CCCC(Oc1ccc(C#N)c(C(F)(F)F)c1)c1ccccn1 (centres unmarked) [Example 81, 4-(1-Pyridin-2-yl-butoxy)-2-trifluoromethyl-benzonitrile]			280 nM	54.3 nM
	CCC(Oc1ccc(C#N)c(C(F)(F)F)c1)c1cccc(O)c1 (single isomer, unassigned; (-)) [Example 13, (−)4-[1-(3-Hydroxyphenyl)propoxy]-2-(trifluoromethyl)benzonitrile]			31 nM	23 nM
	N#Cc1ccc(OC(Cc2ccccc2)c2cccnc2)cc1C(F)(F)F (centres unmarked) [Example 91, 4-(2-Phenyl-1-pyridin-3-yl-ethoxy)-2-trifluoromethyl-benzonitrile]	116 nM		342 nM	
	CC(Oc1ccc(C#N)c(C(F)(F)F)c1)c1cccnc1 (single isomer, unassigned) [Example 34, 4-(1-Pyridin-3-yl-ethoxy)-2-trifluoromethyl-benzonitrile]			94 nM	141 nM
	CC(Oc1ccc(C#N)c(C(F)(F)F)c1)c1cccc(Cl)c1 (centres unmarked) [Example 26, 4-[1-(3-Chloro-phenyl)-ethoxy]-2-trifluoromethyl-benzonitrile]			56 nM	122 nM
	CC(Oc1ccc(C#N)c(C(F)(F)F)c1)c1cccc(C#N)c1 (centres unmarked) [Example 30, 4-[1-(3-Cyano-phenyl)-ethoxy]-2-trifluoromethyl-benzonitrile]			7 nM	22 nM
